Test results reported in ChEMBL document CHEMBL3600320, “An oxidative coupling product of luteolin with cysteine ester and its enhanced inhibitory activity for xanthine oxidase” (Bioorg Med Chem Lett, 2015).

Columns and labels:
[1] = target: T1, Xanthine dehydrogenase/oxidase (Homo sapiens, UniProt P47989); assay: Inhibition of xanthine oxidase (unknown origin) using xanthine as substrate after 10 mins by HPLC method
[2] = target: T1, Xanthine dehydrogenase/oxidase; assay: Inhibition of xanthine oxidase (unknown origin) using xanthine as substrate at 33 to 100 umol/L after 10 mins by HPLC method relative to control

T1 sequence (P47989 whole entry): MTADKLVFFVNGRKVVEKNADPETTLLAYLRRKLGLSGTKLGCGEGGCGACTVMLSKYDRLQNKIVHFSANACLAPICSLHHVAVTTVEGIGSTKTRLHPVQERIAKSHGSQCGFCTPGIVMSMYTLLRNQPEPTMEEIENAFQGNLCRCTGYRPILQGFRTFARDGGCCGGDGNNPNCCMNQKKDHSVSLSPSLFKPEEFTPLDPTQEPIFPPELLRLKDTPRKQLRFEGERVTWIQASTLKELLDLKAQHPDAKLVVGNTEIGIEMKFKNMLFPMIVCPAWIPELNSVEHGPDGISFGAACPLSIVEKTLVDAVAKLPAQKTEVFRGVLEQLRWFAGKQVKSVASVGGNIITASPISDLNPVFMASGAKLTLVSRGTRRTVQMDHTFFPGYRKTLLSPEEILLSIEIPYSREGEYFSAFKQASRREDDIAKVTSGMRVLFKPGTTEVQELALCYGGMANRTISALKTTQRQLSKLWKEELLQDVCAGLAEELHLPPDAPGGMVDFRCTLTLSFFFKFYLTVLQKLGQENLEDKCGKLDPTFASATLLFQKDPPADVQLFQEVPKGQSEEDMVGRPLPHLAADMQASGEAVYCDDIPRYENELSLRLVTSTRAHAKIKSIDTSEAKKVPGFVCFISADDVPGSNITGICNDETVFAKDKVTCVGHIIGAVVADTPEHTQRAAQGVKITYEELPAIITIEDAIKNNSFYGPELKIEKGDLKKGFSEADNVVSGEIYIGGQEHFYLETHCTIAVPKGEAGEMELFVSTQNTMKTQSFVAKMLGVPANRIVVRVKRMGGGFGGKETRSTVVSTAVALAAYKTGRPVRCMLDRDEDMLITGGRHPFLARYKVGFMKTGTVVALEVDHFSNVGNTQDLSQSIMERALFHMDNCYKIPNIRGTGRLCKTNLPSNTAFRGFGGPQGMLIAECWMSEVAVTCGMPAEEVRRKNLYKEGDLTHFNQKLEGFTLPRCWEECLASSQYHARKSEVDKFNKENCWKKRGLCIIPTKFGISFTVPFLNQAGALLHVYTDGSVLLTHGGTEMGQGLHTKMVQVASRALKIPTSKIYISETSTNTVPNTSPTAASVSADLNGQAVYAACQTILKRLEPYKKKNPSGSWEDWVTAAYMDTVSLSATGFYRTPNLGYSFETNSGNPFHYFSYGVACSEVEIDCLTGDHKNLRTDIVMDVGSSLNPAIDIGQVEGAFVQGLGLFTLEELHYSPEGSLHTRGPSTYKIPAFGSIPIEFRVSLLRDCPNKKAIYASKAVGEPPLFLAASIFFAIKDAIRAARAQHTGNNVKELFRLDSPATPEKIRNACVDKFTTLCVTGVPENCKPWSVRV

inhibition (INH) ([1]; human, 10 min) | SMILES | IC50 [1] | inhibition (INH) [2]
Dose-dependent effect | CCOC(=O)C1=Nc2c(O)ccc(-c3cc(=O)c4c(O)cc(O)cc4o3)c2SC1 | 1.7 µM | 
 | O=c1c(O)c(-c2ccc(O)cc2)oc2cc(O)cc(O)c12 [KAEMPFEROL] |  | > 50%
 | O=c1cc(-c2ccc(O)c(O)c2)oc2cc(O)cc(O)c12 [LUTEOLIN] | 7.8 µM | > 50%
 | O=c1c(O)c(-c2cc(O)c(O)c(O)c2)oc2cc(O)cc(O)c12 [MYRICETIN] |  | > 50%
 | O=c1c(O)c(-c2ccc(O)c(O)c2)oc2cc(O)cc(O)c12 [QUERCETIN] |  | > 50%
